Laboratory results taken from US6054437A, “Method for inducing death of neoplastic cells using piperazine derivatives” (Hitachi Chemical Research Center, Inc., priority 1997, dated 2000).
“Also recorded” adds a separate entry of the source. Structures can show the parent of a compound that is named as a salt.

What was measured:
human tumor cells = experiment: Human tumor biopsy assay, tumors in general; assay type: cell-based; details: 20 μM NCO-700 plus vinblastine or adriamycin
Procedure: 4. Human Tumor Biopsy Assays
where the effect of NCO-700 to enhance killing, by either vinblastine or adriamycin, of cancer cells cultured directly from patient's tumors (Von Hoff et al., Cancer Res. 43:1926-1931, 1983).
For the tumor biopsy assay, primary cell cultures were propagated directly from tumor specimens removed from patients. The cells were grown in suspension culture, treated with adriamycin or vinblastine plus NCO-700, and plated onto soft agar and incubated for two weeks before cell survival was determined.
In a final series of experiments, the effect of NCO-700 on survival of cells cultured directly from biopsied patient tumors was performed. This technique, referred to as a human tumor cloning system, was developed by Von Hoff and associates (Von Hoff et al., Cancer Res. 43:1926-1931, 1983) and was used clinically to predict the course of chemotherapy for these patients. In this method, tumor biopsies were separated into cell suspensions and treated for 1 hour with either 0.4 mg/ml vinblastine (VLB) or 0.5 mg/ml adriamycin (ADR) plus or minus 20 μM NCO-700. The cell suspensions were washed after one hour of incubation and plated with soft agar. After 14 days of incubation at 37°, the percent of colonies surviving was scored. […] In particular, the survival of tumor cells decreased to approximately 1/2 to 1/3 after exposure to NCO-700 and adriamycin. […]

DU-145 (prostate) = experiment: Cancer cell survival assay, DU-145; assay type: cell-based, human; details: DU-145, seven days, alone
Procedure: (§1) Cell survival was assayed in cultured tumor cells. From 500-1000 cells per well were plated in 24-welled culture dishes and exposed to drug for seven days. After drug exposure, a computerized cell imaging technique was utilized to ascertain the number of viable cells remaining in each culture. From the data, survival curves were plotted and a ED50 (drug concentration that permits 50% cell survival) were calculated.
(§2) The cancer cell survival assay is an important additional in vitro assay to assess the anti-neoplastic activity of compounds as the cells are given a prolonged exposure (seven days) to the drug. FIGS. 9-16 show the effect of increasing the dose of NCO-700 on the survival of a number of cancer cell lines. […] In the figures, the vertical axis is the object area, which is the number of surviving cancer cells calculated by a computer.

HS-578T (breast) = experiment: Cancer cell survival assay, HS-578T; assay type: cell-based, human; details: seven days, alone
Procedure: as §1, §2

[1] = system: human prostate cancer cells; experiment: Subrenal capsule (SRC) tumor implant assay, prostate cancer; assay type: in vivo, human tumor in BDF/1 mice
Procedure: FIG. 17 is a graph showing the relationship between the mean change in size of tumor (delta mean) and the dosage of NCO-700 in a sub-renal capsule assay of human prostate cancer in BDF/1 mice.
3. In Vivo Model/Subrenal Capsule (SRC) Tumor Implant Assay
A tumor implant model, where human tumors were implanted into the renal capsule of mice was performed. The tumors successfully escaped the immune system of the mouse and grew over a six-day period. The advantage of this assay is that the effect of chemotherapeutic agents can be tested in vivo. This model was developed at the University of California, Irvine by Stratton et al. (Gynecologic Oncology 17:185-188, 1984). Human tumors were implanted on day one and were exposed to drug on days two-six. The size of the implant was determined at time zero and at the end of five days of drug treatment, and the difference in size of the implanted tumor at day six, when compared to control animals not exposed to drug, is referred to herein as the delta mean.
Human cancer cells can be grown in the sub-renal capsule of mice, where for a limited period of time they escaped the detection of the mouse's immune system. This assay provides a convenient system to study the effect of drugs on the growth of tumor cells in vivo. As this is a much more time-consuming assay, and requires more drug than the in vitro assays, the effect of NCO-700 was tested on a single prostate cancer cell line. Three groups of animals (n=23 total) were tested with three concentrations of NCO-700 including, 10 mg/kg, 20 mg/kg and 40 mg/kg.

human cancer cells = experiment: Cancer cell death assays against a number of human cancer cells; assay type: cell-based; details: compounds alone; analogs at 25 μM (FIGS. 20-25)
Procedure: Cell death was measured quantitatively by the release of a marker intracellular enzyme, lactate dehydrogenase (LDH), from damaged or killed cells. LDH released into the extracellular fluid, was measured 24 hours after drug exposure to cancer cells and the enzyme activity was determined by the method of Decker et al. (J. Immunolog Methods 15:61-99, 1988).
As described in Experiment 1, three different assays were performed to measure anti-neoplastic activity of compounds.
The first assays performed measured the anti-neoplastic activity of NCO-700 analogs in cell death assays against a number of human cancer cells. The results of these experiments are shown in FIGS. 20-25, where a bar graph indicates the activity of a particular analog as measured by the % LDH released, with higher values of LDH released indicating greater anti-neoplastic activity (apoptosis). All analogs were tested at a concentration of 25 μM.

KB-3 (sensitive cells) = experiment: Drug accumulation assay ([3H]-vinblastine), sensitive cells; assay type: cell-based, human; details: KB-3, 20 μM NCO-700 + vinblastine
Procedure: 1. Drug Accumulation Assays
where the effect of NCO-700 on the uptake of radioactive (^3 H)-vinblastine, an anticancer drug, is measured in cultured cancer cells, that are both drug-resistant and drug-sensitive (Reference 3).
In the first two in vitro assays, the drug accumulation assay and the cell survival assay, a human pharyngeal carcinoma cell line (KB-V-1) which is highly resistant to anticancer drugs was used. This cell line was developed by Drs. Ira Pastan and Michael Gottesman of the National Cancer Institute, by step-wise selection in colchicine of drug-resistant cells. The control cancer cell line (KB-3), from which the resistant cell lines were derived, is sensitive to anticancer drugs. The resistant KB-V-1 cell line is approximately 275 times more resistant to vinblastine than the sensitive KB-3 line and has a greatly amplified mdr gene which generates the observed resistance.
Measurement of [^3 H]-vinblastine accumulation was performed by the methods developed in the laboratory of Drs. Gottesman and Pastan (Fojo et al., Cancer Res. 45:3002-3007, 1985). […] After an additional 30 min, the medium was removed, the plates were washed three times in ice-cold phosphate-buffered saline, the cells were detached with trypsin, and radioactivity determined by scintillation counting.

For CCOC(=O)[C@@H]1O[C@H]1C(=O)N[C@@H](CC(C)C)C(=O)N1CCN(Cc2ccc(OC)c(OC)c2OC)CC1 [NCO-700, Bis[ethyl (2R,3R)-3-[(S)-3-methyl-1-[4-(2,3,4-trimethoxyphenylmethyl)piperazin-1-ylcarbonyl]butylcarbamoyl]oxirane-2-carboxylate] Sulfate], the “activity in inhibiting survival / sensitizing human tumor cells” value (human tumor cells) was “significant activity in inhibiting the survival of certain human tumor cells; also recorded: excellent activity in sensitizing to anticancer drugs”, the “response of all other tumors” value (human tumor cells) was “varying degrees of positive response” and the “anti-neoplastic activity (cell survival)” value (DU-145 (prostate)) was “significant anti-neoplastic activity”. For the same molecule, the “anti-neoplastic activity (cell survival)” value (HS-578T (breast)) was “significant anti-neoplastic activity”, the “effect on tumor size” value ([1]; 10 mg/kg) was “no effect” and the “effect on tumor size” value ([1]; 20 mg/kg) was “significant anti-neoplastic effect”. The “effect on tumor size” value ([1]; 40 mg/kg) was “highly significant”, the “anti-neoplastic activity, selectivity among human cancer cells” value (human cancer cells) was “highly effective as an anti-neoplastic agent versus selective tumors” and the vinblastine accumulation (KB-3 (sensitive cells)) was 3.17 ± 0.09 pmole vinblastine/mg protein.
